# Measurements reported in the supplement of paper PMC10307832.
# What was measured:
# Assay in all cases: relative viability (nuclei count vs DMSO), 5 days (fraction); higher = more cells survive
# [1] = system: HARA
# Procedure, shortened: (§1)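 Cells from lung cancer lines were seeded into 1536-well plates and, one day later, dosed by pin tool. Treatments were either a single drug or a fixed dose of an anchor drug with five library-drug doses (not always all listed) in √10 steps. After 5 days, nuclei were stained in a one-step fixation (final 0.05% Triton X-100, 1% formaldehyde, 1 ug/ml Hoechst) and counted on 4× images, and relative viability is the treated-to-vehicle nuclei ratio, as the median of duplicate plates.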
# [2] = system: CAL-12T
# Procedure, shortened: as §1
# [3] = system: HCC-827
# Procedure, shortened: as §1
# [4] = system: HOP-62
# Procedure, shortened: as §1
# [5] = system: EMC-BAC-2
# Procedure, shortened: as §1
# [6] = system: NCI-H1437
# Procedure, shortened: as §1
# [7] = system: LCLC-103H
# Procedure, shortened: as §1
# [8] = system: NCI-H727
# Procedure, shortened: as §1
# [9] = system: A-427
# Procedure, shortened: as §1
# [10] = system: NCI-H1792
# Procedure, shortened: as §1
# [11] = system: NCI-H23
# Procedure, shortened: as §1
# [12] = system: NCI-H460
# Procedure, shortened: as §1
# [13] = system: NCI-H1915
# Procedure, shortened: as §1
# [14] = system: NCI-H1395
# Procedure, shortened: as §1
# [15] = system: NCI-H1755
# Procedure, shortened: as §1
# [16] = system: HCC-366
# Procedure, shortened: as §1
# [17] = system: NCI-H522
# Procedure, shortened: as §1
structure (smiles),measurement,setting,value
COc1cc2nccc(Oc3ccc(NC(=O)Nc4cc(C)on4)c(Cl)c3)c2cc1OC [Tivozanib] + NC(=O)Nc1cc(-c2cccc(F)c2)sc1C(=O)N[C@H]1CCCNC1 [AZD7762] (partner 0.2 µM),relative viability,[1]; first compound 0.005 µM,0.268
same,relative viability,[1]; first compound 0.01581 µM,0.335
same,relative viability,[1]; first compound 0.05 µM,0.424
same,relative viability,[1]; first compound 0.1581 µM,0.231
same,relative viability,[1]; first compound 0.5 µM,0.267
same,relative viability,[2]; first compound 0.005 µM,0.483
same,relative viability,[2]; first compound 0.01581 µM,0.584
same,relative viability,[2]; first compound 0.05 µM,0.668
same,relative viability,[2]; first compound 0.1581 µM,0.722
same,relative viability,[2]; first compound 0.5 µM,0.71
same,relative viability,[3]; first compound 0.005 µM,0.202
same,relative viability,[3]; first compound 0.01581 µM,0.25
same,relative viability,[3]; first compound 0.05 µM,0.314
same,relative viability,[3]; first compound 0.1581 µM,0.185
same,relative viability,[3]; first compound 0.5 µM,0.194
same,relative viability,[4]; first compound 0.005 µM,0.559
same,relative viability,[4]; first compound 0.01581 µM,0.646
same,relative viability,[4]; first compound 0.05 µM,0.383
same,relative viability,[4]; first compound 0.1581 µM,0.429
same,relative viability,[4]; first compound 0.5 µM,0.467
same,relative viability,[5]; first compound 0.005 µM,1.06
same,relative viability,[5]; first compound 0.01581 µM,1.15
same,relative viability,[5]; first compound 0.05 µM,1.06
same,relative viability,[5]; first compound 0.1581 µM,1.06
same,relative viability,[5]; first compound 0.5 µM,1.04
same,relative viability,[6]; first compound 0.005 µM,1.12
same,relative viability,[6]; first compound 0.01581 µM,1.16
same,relative viability,[6]; first compound 0.05 µM,1.07
same,relative viability,[6]; first compound 0.1581 µM,1.17
same,relative viability,[6]; first compound 0.5 µM,1.04
same,relative viability,[7]; first compound 0.005 µM,0.758
same,relative viability,[7]; first compound 0.01581 µM,0.829
same,relative viability,[7]; first compound 0.05 µM,0.812
same,relative viability,[7]; first compound 0.1581 µM,0.689
same,relative viability,[7]; first compound 0.5 µM,0.802
same,relative viability,[8]; first compound 0.005 µM,0.548
same,relative viability,[8]; first compound 0.01581 µM,0.657
same,relative viability,[8]; first compound 0.05 µM,0.408
same,relative viability,[8]; first compound 0.1581 µM,0.442
same,relative viability,[8]; first compound 0.5 µM,0.697
same,relative viability,[9]; first compound 0.005 µM,0.75
same,relative viability,[9]; first compound 0.01581 µM,0.795
same,relative viability,[9]; first compound 0.05 µM,0.728
same,relative viability,[9]; first compound 0.1581 µM,0.68
same,relative viability,[9]; first compound 0.5 µM,0.719
same,relative viability,[10]; first compound 0.005 µM,0.641
same,relative viability,[10]; first compound 0.01581 µM,0.646
same,relative viability,[10]; first compound 0.05 µM,0.509
same,relative viability,[10]; first compound 0.5 µM,0.53
same,relative viability,[11]; first compound 0.005 µM,0.185
same,relative viability,[11]; first compound 0.01581 µM,0.229
same,relative viability,[11]; first compound 0.05 µM,0.295
same,relative viability,[11]; first compound 0.5 µM,0.176
same,relative viability,[12]; first compound 0.005 µM,0.533
same,relative viability,[12]; first compound 0.01581 µM,0.689
same,relative viability,[12]; first compound 0.05 µM,0.651
same,relative viability,[12]; first compound 0.1581 µM,0.566
same,relative viability,[12]; first compound 0.5 µM,0.471
same,relative viability,[13]; first compound 0.005 µM,0.728
same,relative viability,[13]; first compound 0.01581 µM,0.687
same,relative viability,[13]; first compound 0.05 µM,0.711
same,relative viability,[13]; first compound 0.1581 µM,0.717
same,relative viability,[13]; first compound 0.5 µM,0.618
same,relative viability,[14]; first compound 0.005 µM,0.359
same,relative viability,[14]; first compound 0.01581 µM,0.389
same,relative viability,[14]; first compound 0.05 µM,0.402
same,relative viability,[14]; first compound 0.1581 µM,0.386
same,relative viability,[14]; first compound 0.5 µM,0.35
same,relative viability,[15]; first compound 0.005 µM,0.441
same,relative viability,[15]; first compound 0.01581 µM,0.428
same,relative viability,[15]; first compound 0.05 µM,0.444
same,relative viability,[15]; first compound 0.1581 µM,0.457
same,relative viability,[15]; first compound 0.5 µM,0.411
same,relative viability,[16]; first compound 0.005 µM,0.333
same,relative viability,[16]; first compound 0.01581 µM,0.245
same,relative viability,[16]; first compound 0.05 µM,0.35
same,relative viability,[16]; first compound 0.1581 µM,0.362
same,relative viability,[16]; first compound 0.5 µM,0.25
same,relative viability,[17]; first compound 0.005 µM,0.903
same,relative viability,[17]; first compound 0.01581 µM,0.793
same,relative viability,[17]; first compound 0.05 µM,0.784
same,relative viability,[17]; first compound 0.1581 µM,0.811
same,relative viability,[17]; first compound 0.5 µM,0.857
